Literature values in patent US11434243B2, “Triazoloquinazolinone synthesis” (priority 2017, dated 2022).

How the values were obtained:
[1] = tested on: benzodiazepine site of the GABAA receptor complex
[2] = qualitative; complicates purification

Structure (SMILES): Cc1ccc(-n2nc3c4cc(Cc5ccccc5)ccc4[nH]c(=O)n3c2=O)cc1 [Compound 12, 9-benzyl-2-(4-methylphenyl)-2,6-dihydro[1,2,4]triazolo[4,3-c]quinazoline-3,5-dione]
- potency relative to diazepam in displacing 3H-Flumazenil ([1]; fold more potent than diazepam): 10 times
- inhibition of the binding of 3H-Flumazenil to the benzodiazepine site of the GABAA receptor complex ([1]; rat membrane preparations, result in words): very potent inhibitor
- selectivity for the GABAA receptor complex ([1]; result in words): selective for the GABAA receptor complex
- solubility [2]: low solubility
